# Measured values: patent US6613899B1, “Method for preventing deposits in oil extraction” (Cooperatie Cosun U.A., priority 1998, dated 2003)
# Key:
# [1] = Barium sulphate scale inhibition; conditions: pH 5.5, 80° C., 10 hours
# Protocol: (§1) The scale-inhibiting action of CMI (DP≈10) was determined for barium sulphate. A saturated barium sulphate solution was prepared by mixing a barium chloride solution (380 mg/l) with a sodium sulphate solution (3350 mg/l) in a 1:1 ratio, with a maximum amount of barium sulphate to be formed of 210 mg/l. 5 mg/l, 10 mg/l or 15 mg/l of inhibitor was added to the solution. The pH of the solution was adjusted to 5.5 by addition of 1 ml acetate buffer (3.6 g sodium acetate trihydrate and 0.5 g acetic acid per 100 ml) per 100 ml. The solution was then left to stand at 80° C. After 10 hours the solution was filtered by suction through a 0.45 μm Millipore filter and the barium content of the filtrate was determined. The action of the inhibitor was calculated on the basis of the barium value for the experiment without inhibitor (0 per cent inhibition) and the barium value at which no precipitate was formed (100 per cent inhibition).
# [2] = Barium sulphate scale inhibition in presence of Fe2+ ions; conditions: 38 mg/l Fe2+ ions, pH 5.5, 80° C., 10 hours
# Protocol: as §1
# Example 4 was repeated, with the exception that the barium sulphate solution contained 38 mg/l of Fe^2+ ions.
compound,measurement,setting,value
O=P(O)(O)CN(CCN(CP(=O)(O)O)CP(=O)(O)O)CCN(CP(=O)(O)O)CP(=O)(O)O [Pentaphosphonate (DETPMP)],Inhibition (%) with 5 mg/l,[1]; 5 mg/l inhibitor,18.0%
same,Inhibition (%) with 10 mg/l,[1]; 10 mg/l inhibitor,38.5%
same,Inhibition (%) with 15 mg/l,[1]; 15 mg/l inhibitor,55.5%
same,Inhibition (%) with 5 mg/l,[2]; 5 mg/l inhibitor,12.0%
same,Inhibition (%) with 10 mg/l,[2]; 10 mg/l inhibitor,21.5%
same,Inhibition (%) with 15 mg/l,[2]; 15 mg/l inhibitor,34.5%
